Results from patent publication US4877893A, “Process for the preparation of 2-(O-alkyl)-2-thio-1,3,2-oxathiophospholanes” (priority 1987, dated 1989).

Assays:
Test in all cases: Fungicidal effect on infected agar nutrient media, colony diameter
Type in all cases: cell-based
Sclerotinia sclerotinia = conditions: 3rd day after treatment, untreated control 41.7
Description: (§1) Agar nutrient media (Diameter 70 MM, thickness 10 mm) infected by Sclerotonia sclerotinia suspension are treated with 20 EC formulations prepared according to Example 27 and comprising 1, 10, 100 and 1000 ppm, respectively of the active ingredient of the Formula I. The fungicidal effect of the compositions is evaluated on the 3rd day after treatment by measuring the diameter of the Fungi colonies.

Penicillium cyclopium = conditions: 7th day after treatment, untreated 26.5
Description: as §1
The series of measureents described in Example 35 is carried out except that the agar nutrient media are infected by a Penicillium cyclopium Fungi strain and the test is evaluated on the 7th day after treatment.

Alternaria tenuis = conditions: 5th day after treatment, untreated control 36.8
Description: as §1
The series of measurements according to Example 35 is carried out except that the agar nutrient media are infected by Alternaria Tenius and evaluation is accomplished on the 5th day after treatment.

Structure (SMILES) | Diameter of colony (mm) (Sclerotinia sclerotinia; 1 ppm) | Diameter of colony (mm) (Sclerotinia sclerotinia; 10 ppm) | Diameter of colony (mm) (Sclerotinia sclerotinia; 100 ppm) | Diameter of colony (mm) (Sclerotinia sclerotinia; 1000 ppm) | Diameter of colony (mm) (Penicillium cyclopium; 1 ppm) | Diameter of colony (mm) (Penicillium cyclopium; 10 ppm) | Diameter of colony (mm) (Penicillium cyclopium; 100 ppm) | Diameter of colony (mm) (Penicillium cyclopium; 1000 ppm) | Diameter of colony (mm) (Alternaria tenuis; 1 ppm) | Diameter of colony (mm) (Alternaria tenuis; 10 ppm) | Diameter of colony (mm) (Alternaria tenuis; 100 ppm) | Diameter of colony (mm) (Alternaria tenuis; 1000 ppm)
S=P1(OCCI)OCCS1 (stereo not drawn) [Compound 3, 2-(O-2'-iodoethyl)-2-thio1,3,2-oxathiophospholane] | 37.4 | 30.0 | 2.1 | 0 | 25.0 | 18.6 | 7.1 | 0 | 34.6 | 22.4 | 6.8 | 0
CC(CCl)OP1(=S)OCCS1 (stereo not drawn) [Compound 10, 2-(0-1'-methyl-2'-chloroethyl)-2-thio-1,3,2-oxathiophospholane] | 40.1 | 31.3 | 1.8 | 0 | 21.3 | 19.0 | 6.8 | 0 | 33.9 | 21.6 | 5.8 | 0
CC(Br)COP1(=S)OCC(C)S1 (stereo not drawn) [Compound 26] | 40.9 | 32.1 | 1.6 | 0 | 20.5 | 18.8 | 8.5 | 0 | 34.2 | 21.1 | 6.2 | 0
CC1COP(=S)(OCCCl)S1 (stereo not drawn) [Compound 7] | 38.1 | 31.2 | 0 | 0 | 25.4 | 16.7 | 8.8 | 0 | 34.7 | 25.5 | 5.9 | 0
CC(C)C(C)OP1(=S)OC(C)C(C)S1 (stereo not drawn) [Compound 54, 2-(0-1',2'-dimethyl-n-propyl)-2-thio-4,5-dimethyl1,3,2-oxathiophospholane] | 34.9 | 29.0 | 4.1 | 0 | 25.2 | 18.8 | 7.9 | 0 | 34.7 | 24.6 | 7.2 | 0
CC(CBr)OP1(=S)OC(C)C(C)S1 (stereo not drawn) [Compound 35] | 38.1 | 25.7 | 2.6 | 0 | 25.1 | 14.7 | 8.3 | 0 | 34.7 | 27.1 | 6.2 | 0
CCCCOP1(=S)OC(C)CS1 (stereo not drawn) [Compound 60, 2-(0-n-butyl)-2-thio-5-methyl-1,3,2-oxathiophospholane] | 33.7 | 30.0 | 3.8 | 0 | 23.6 | 19.9 | 8.2 | 0 | 33.3 | 25.5 | 6.8 | 0
CC1OP(=S)(OCCBr)SC1C (stereo not drawn) [Compound 17] | 40.1 | 30.2 | 1.0 | 0 | 24.9 | 14.2 | 8.9 | 0 | 33.2 | 23.9 | 5.6 | 0
